{"source": "PubChem BioAssay AID1963984", "about": "(Molecular Pharmacology Branch, DTP, NCI, 2024)", "tested_on": "233499-124-R-J3-PDC spheroids with HUVEC/MSC, viability", "test": "Anticancer human tumor 233499-124-R-J3-PDC patient-derived colon adenocarcinoma cell line growth inhibition [PI3K]", "conditions": "for IC50: curve of first compound; for viability, T/C: stronger effect = lower value", "in_short": "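High-throughput combination screen: PI3K inhibitors crossed with targeted small molecules on complex spheroids of tumor cells, HUVEC and MSCs at 37 degrees C, 5% CO2. Top concentration was at or near clinical Cmax (otherwise 10 microM), with half-log decrements.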"}
{"compound": "CNC(=O)c1ccc(N2C(=S)N(c3ccc(C#N)c(C(F)(F)F)c3)C(=O)C2(C)C)cc1F", "note": "+ Cc1nc(NC(=O)N2CCCC2C(N)=O)sc1-c1ccnc(C(C)(C)C(F)(F)F)c1;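 also: spheroids exposed to agents for seven days before readout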;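 as to viability, T/C: percent viability relative to DMSO vehicle control taken as 100%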", "values": [{"measurement": "IC50", "setting": "second compound 0.0316 µM", "result": 9800, "unit": "nM"}, {"measurement": "IC50", "setting": "second compound 0.1 µM", "result": "> 10000", "unit": "nM"}, {"measurement": "IC50", "setting": "second compound 0.316 µM", "result": "> 10000", "unit": "nM"}, {"measurement": "IC50", "setting": "second compound 1 µM", "result": "> 10000", "unit": "nM"}, {"measurement": "IC50", "setting": "second compound 3.16 µM", "result": 4620, "unit": "nM"}, {"measurement": "IC50", "setting": "second compound 10 µM", "result": "< 31.6", "unit": "nM"}, {"measurement": "viability, T/C", "setting": "second compound 0.0316 µM, first compound 0.0316 µM", "result": 101, "unit": "%"}, {"measurement": "viability, T/C", "setting": "second compound 0.0316 µM, first compound 0.1 µM", "result": 107, "unit": "%"}, {"measurement": "viability, T/C", "setting": "second compound 0.0316 µM, first compound 0.316 µM", "result": 80.8, "unit": "%"}, {"measurement": "viability, T/C", "setting": "second compound 0.0316 µM, first compound 1 µM", "result": 100, "unit": "%"}, {"measurement": "viability, T/C", "setting": "second compound 0.0316 µM, first compound 3.16 µM", "result": 102, "unit": "%"}, {"measurement": "viability, T/C", "setting": "second compound 0.0316 µM, first compound 10 µM", "result": 49.1, "unit": "%"}, {"measurement": "viability, T/C", "setting": "second compound 0.1 µM, first compound 0.0316 µM", "result": 111, "unit": "%"}, {"measurement": "viability, T/C", "setting": "second compound 0.1 µM, first compound 0.1 µM", "result": 72.8, "unit": "%"}, {"measurement": "viability, T/C", "setting": "second compound 0.1 µM, first compound 0.316 µM", "result": 66, "unit": "%"}, {"measurement": "viability, T/C", "setting": "second compound 0.1 µM, first compound 1 µM", "result": 84.1, "unit": "%"}, {"measurement": "viability, T/C", "setting": "second compound 0.1 µM, first compound 3.16 µM", "result": 85.9, "unit": "%"}, {"measurement": "viability, T/C", "setting": "second compound 0.1 µM, first compound 10 µM", "result": 73.2, "unit": "%"}, {"measurement": "viability, T/C", "setting": "second compound 0.316 µM, first compound 0.0316 µM", "result": 95.8, "unit": "%"}, {"measurement": "viability, T/C", "setting": "second compound 0.316 µM, first compound 0.1 µM", "result": 100, "unit": "%"}, {"measurement": "viability, T/C", "setting": "second compound 0.316 µM, first compound 0.316 µM", "result": 70.6, "unit": "%"}, {"measurement": "viability, T/C", "setting": "second compound 0.316 µM, first compound 1 µM", "result": 88.3, "unit": "%"}, {"measurement": "viability, T/C", "setting": "second compound 0.316 µM, first compound 3.16 µM", "result": 85.9, "unit": "%"}, {"measurement": "viability, T/C", "setting": "second compound 0.316 µM, first compound 10 µM", "result": 56.2, "unit": "%"}, {"measurement": "viability, T/C", "setting": "second compound 1 µM, first compound 0.0316 µM", "result": 105, "unit": "%"}, {"measurement": "viability, T/C", "setting": "second compound 1 µM, first compound 0.1 µM", "result": 70.3, "unit": "%"}, {"measurement": "viability, T/C", "setting": "second compound 1 µM, first compound 0.316 µM", "result": 78.9, "unit": "%"}, {"measurement": "viability, T/C", "setting": "second compound 1 µM, first compound 1 µM", "result": 61.5, "unit": "%"}, {"measurement": "viability, T/C", "setting": "second compound 1 µM, first compound 3.16 µM", "result": 60.5, "unit": "%"}, {"measurement": "viability, T/C", "setting": "second compound 1 µM, first compound 10 µM", "result": 51.3, "unit": "%"}, {"measurement": "viability, T/C", "setting": "second compound 3.16 µM, first compound 0.0316 µM", "result": 59.1, "unit": "%"}, {"measurement": "viability, T/C", "setting": "second compound 3.16 µM, first compound 0.1 µM", "result": 51.1, "unit": "%"}, {"measurement": "viability, T/C", "setting": "second compound 3.16 µM, first compound 0.316 µM", "result": 61.2, "unit": "%"}, {"measurement": "viability, T/C", "setting": "second compound 3.16 µM, first compound 1 µM", "result": 54.5, "unit": "%"}, {"measurement": "viability, T/C", "setting": "second compound 3.16 µM, first compound 3.16 µM", "result": 57, "unit": "%"}, {"measurement": "viability, T/C", "setting": "second compound 3.16 µM, first compound 10 µM", "result": 37, "unit": "%"}, {"measurement": "viability, T/C", "setting": "second compound 10 µM, first compound 0.0316 µM", "result": 24, "unit": "%"}, {"measurement": "viability, T/C", "setting": "second compound 10 µM, first compound 0.1 µM", "result": 34.6, "unit": "%"}, {"measurement": "viability, T/C", "setting": "second compound 10 µM, first compound 0.316 µM", "result": 28.1, "unit": "%"}, {"measurement": "viability, T/C", "setting": "second compound 10 µM, first compound 1 µM", "result": 31.8, "unit": "%"}, {"measurement": "viability, T/C", "setting": "second compound 10 µM, first compound 3.16 µM", "result": 29.3, "unit": "%"}, {"measurement": "viability, T/C", "setting": "second compound 10 µM, first compound 10 µM", "result": 19.6, "unit": "%"}]}
{"compound": "Cn1cnc2c(F)c(Nc3ccc(Br)cc3Cl)c(C(=O)NOCCO)cc21", "note": "+ Cc1nc(NC(=O)N2CCCC2C(N)=O)sc1-c1ccnc(C(C)(C)C(F)(F)F)c1", "values": [{"measurement": "IC50", "setting": "second compound 0.0316 µM", "result": 198, "unit": "nM"}, {"measurement": "IC50", "setting": "second compound 0.1 µM", "result": 87.6, "unit": "nM"}, {"measurement": "IC50", "setting": "second compound 0.316 µM", "result": 87.9, "unit": "nM"}, {"measurement": "IC50", "setting": "second compound 1 µM", "result": 24.9, "unit": "nM"}, {"measurement": "IC50", "setting": "second compound 3.16 µM", "result": "< 9.49", "unit": "nM"}, {"measurement": "IC50", "setting": "second compound 10 µM", "result": "< 9.49", "unit": "nM"}, {"measurement": "viability, T/C", "setting": "second compound 0.0316 µM, first compound 0.00949 µM", "result": 88.1, "unit": "%"}, {"measurement": "viability, T/C", "setting": "second compound 0.0316 µM, first compound 0.03 µM", "result": 84.8, "unit": "%"}, {"measurement": "viability, T/C", "setting": "second compound 0.0316 µM, first compound 0.0949 µM", "result": 57, "unit": "%"}, {"measurement": "viability, T/C", "setting": "second compound 0.0316 µM, first compound 0.3 µM", "result": 47.3, "unit": "%"}, {"measurement": "viability, T/C", "setting": "second compound 0.0316 µM, first compound 0.949 µM", "result": 52, "unit": "%"}, {"measurement": "viability, T/C", "setting": "second compound 0.0316 µM, first compound 3 µM", "result": 37.3, "unit": "%"}, {"measurement": "viability, T/C", "setting": "second compound 0.1 µM, first compound 0.00949 µM", "result": 86.8, "unit": "%"}, {"measurement": "viability, T/C", "setting": "second compound 0.1 µM, first compound 0.03 µM", "result": 68, "unit": "%"}, {"measurement": "viability, T/C", "setting": "second compound 0.1 µM, first compound 0.0949 µM", "result": 39, "unit": "%"}, {"measurement": "viability, T/C", "setting": "second compound 0.1 µM, first compound 0.3 µM", "result": 45.9, "unit": "%"}, {"measurement": "viability, T/C", "setting": "second compound 0.1 µM, first compound 0.949 µM", "result": 28.4, "unit": "%"}, {"measurement": "viability, T/C", "setting": "second compound 0.1 µM, first compound 3 µM", "result": 20.2, "unit": "%"}, {"measurement": "viability, T/C", "setting": "second compound 0.316 µM, first compound 0.00949 µM", "result": 64.2, "unit": "%"}, {"measurement": "viability, T/C", "setting": "second compound 0.316 µM, first compound 0.03 µM", "result": 63.5, "unit": "%"}, {"measurement": "viability, T/C", "setting": "second compound 0.316 µM, first compound 0.0949 µM", "result": 35.1, "unit": "%"}, {"measurement": "viability, T/C", "setting": "second compound 0.316 µM, first compound 0.3 µM", "result": 57.2, "unit": "%"}, {"measurement": "viability, T/C", "setting": "second compound 0.316 µM, first compound 0.949 µM", "result": 30.3, "unit": "%"}, {"measurement": "viability, T/C", "setting": "second compound 0.316 µM, first compound 3 µM", "result": 32.6, "unit": "%"}, {"measurement": "viability, T/C", "setting": "second compound 1 µM, first compound 0.00949 µM", "result": 88.5, "unit": "%"}, {"measurement": "viability, T/C", "setting": "second compound 1 µM, first compound 0.03 µM", "result": 39.5, "unit": "%"}, {"measurement": "viability, T/C", "setting": "second compound 1 µM, first compound 0.0949 µM", "result": 36.1, "unit": "%"}, {"measurement": "viability, T/C", "setting": "second compound 1 µM, first compound 0.3 µM", "result": 27.8, "unit": "%"}, {"measurement": "viability, T/C", "setting": "second compound 1 µM, first compound 0.949 µM", "result": 29.1, "unit": "%"}, {"measurement": "viability, T/C", "setting": "second compound 1 µM, first compound 3 µM", "result": 19.6, "unit": "%"}, {"measurement": "viability, T/C", "setting": "second compound 3.16 µM, first compound 0.00949 µM", "result": 32.8, "unit": "%"}, {"measurement": "viability, T/C", "setting": "second compound 3.16 µM, first compound 0.03 µM", "result": 34, "unit": "%"}, {"measurement": "viability, T/C", "setting": "second compound 3.16 µM, first compound 0.0949 µM", "result": 24.2, "unit": "%"}, {"measurement": "viability, T/C", "setting": "second compound 3.16 µM, first compound 0.3 µM", "result": 11.5, "unit": "%"}, {"measurement": "viability, T/C", "setting": "second compound 3.16 µM, first compound 0.949 µM", "result": 15.7, "unit": "%"}, {"measurement": "viability, T/C", "setting": "second compound 3.16 µM, first compound 3 µM", "result": 8.72, "unit": "%"}, {"measurement": "viability, T/C", "setting": "second compound 10 µM, first compound 0.00949 µM", "result": 22.3, "unit": "%"}, {"measurement": "viability, T/C", "setting": "second compound 10 µM, first compound 0.03 µM", "result": 19.2, "unit": "%"}, {"measurement": "viability, T/C", "setting": "second compound 10 µM, first compound 0.0949 µM", "result": 8.64, "unit": "%"}, {"measurement": "viability, T/C", "setting": "second compound 10 µM, first compound 0.3 µM", "result": 5.65, "unit": "%"}, {"measurement": "viability, T/C", "setting": "second compound 10 µM, first compound 0.949 µM", "result": 7.32, "unit": "%"}, {"measurement": "viability, T/C", "setting": "second compound 10 µM, first compound 3 µM", "result": 7.06, "unit": "%"}]}
